Source: US20040253261A1, “Biological compositions and methods for treatment of pancreatic cancer” (priority 2003, published 2004)
Read-outs that look alike come from different tables or passages of the source.

Tests used:
[1] = system: pancreatic cancer tumor cells; settings: for Number of live animals remaining in the groups after 30 days of treatment: 30 mice per group
Protocol: (§1) The survival time of mice after tumor injection and treatment was studied.
(§2) The biological composition comprising 10^8 cells per ml of activated and conditioned yeast cells of the strain Saccharomyces cerevisiae Hansen strain IFFI 1413 was prepared by the methods described in Section 5.1 and subsections therein.
The animals were prepared in a similar manner as described in Section 6.1.
The mice injected with tumor cells were divided into 4 experimental groups of ten mice per group and one control group. The four experimental groups were triplicated (i.e., using a total of 120 mice in the experimental groups). In group 2AY, the mice received 0.3 ml of the biological composition once per day. In group 2NY, the mice received 0.3 ml of the untreated yeast cells once per day. In group 2VDS, the mice were injected intravenously with 3 mg of vindesine (VDS) per kg body weight once a week for four weeks. In group 2CK1, the mice received 0.3 ml of physiological saline once per day.
(§3) The mice received the biological compositions, untreated yeast cells, VDS or saline on the same day as the tumor cells were transplanted. The mice in group 2CK2 also started receiving saline on the same day as the other four groups. The biological compositions, untreated yeast cells and saline were administered orally by a feeding tube and the VDS by intravenous injection for 30 consecutive days. The mice were observed over 6 months from the day of tumor inoculation and survival was recorded. The weight of the mice as well as the weight of the tumor were determined by standard techniques.

[2] = system: pancreatic cancer tumor cells; experiment: BALB/c mouse model of human pancreatic cancer, growth of tumors; settings: tumor-bearing BALB/c mice, 30 consecutive days of treatment, sacrificed on 31st day from tumor inoculation
Protocol: as §2
The mice injected with tumor cells were divided into 4 experimental groups of ten mice per group and one control group. The four experimental groups were triplicated (i.e., using a total of 120 mice in the experimental groups).
The mice in group CK2 also started receiving saline on the same day as the other four groups. The biological compositions, untreated yeast cells and saline were administered orally by a feeding tube and the VDS by intravenous injection for 30 consecutive days.

[3] = system: mouse pancreatic cancer cell line MPC-83; settings: for Number of live animals remaining in the groups after 30 days of treatment: 30 mice per group
Protocol: as §1
The biological composition comprising 10^8 per ml of activated and conditioned yeast cells of the strain Saccharomyces cerevisiae Hansen strain IFFI 1413 was prepared by the methods described in Section 5.1 and subsections therein.
The animals were prepared in a similar manner as described in Section 8.1.
The mice injected with tumor cells were kept for 5 days and were divided into 4 experimental groups of ten mice per group and one control group. The four experimental groups were triplicated (i.e., using a total of 120 mice in the experimental groups). In group 2AY, the mice received 0.5 ml of the biological composition once per day. In group 2NY, the mice received 0.5 ml of the untreated yeast cells once per day. In group 2MMC, the mice were injected intravenously with 1.5×10^5 units of mitomycin C (MMC) per kg body weight per day. In group 2CK1, the mice received 0.5 ml of physiological saline once per day.
as §3, with “MMC” for “VDS”

[4] = system: mouse pancreatic cancer cell line MPC-83; experiment: kun ming mouse model of pancreatic cancer (MPC-83), growth of tumors; settings: MPC-83-bearing kun ming mice, 30 consecutive days of treatment, sacrificed on 31st day from tumor inoculation
Protocol: as §2
The mice injected with tumor cells were kept for 5 days and were divided into 4 experimental groups of ten mice per group and one control group. The four experimental groups were triplicated (i.e., using a total of 120 mice in the experimental groups).
The mice received the biological compositions, untreated yeast cells, MMC or saline on the same day as the tumor cells were transplanted. The mice in group CK2 also started receiving saline on the same day as the other four groups. The biological compositions, untreated yeast cells and saline were administered orally by a feeding tube and the MMC by intravenous injection for 30 consecutive days.

[5] = 0 month after cessation of treatment
[6] = 1 month after cessation of treatment
[7] = 2 months after cessation of treatment
[8] = 3 months after cessation of treatment
[9] = 4 months after cessation of treatment
[10] = 5 months after cessation of treatment
[11] = 6 months after cessation of treatment
[12] = mice that survived, observed over 6 months from tumor inoculation

CC[C@]1(O)C[C@@H]2CN(CCc3c([nH]c4ccccc34)[C@@](C(=O)OC)(c3cc4c(cc3OC)N(C)[C@H]3[C@@](O)(C(N)=O)[C@H](O)[C@]5(CC)C=CCN6CC[C@]43[C@@H]65)C2)C1 [Group 2VDS, vindesine]
Number of live animals remaining in the groups after 30 days of treatment [1, 5]: 30 | Number of live animals remaining in the groups after 30 days of treatment [1, 6]: 30 | Number of live animals remaining in the groups after 30 days of treatment [1, 7]: 27 | Number of live animals remaining in the groups after 30 days of treatment [1, 8]: 27 | Number of live animals remaining in the groups after 30 days of treatment [1, 9]: 11 | Number of live animals remaining in the groups after 30 days of treatment [1, 10]: 0 | Number of live animals remaining in the groups after 30 days of treatment [1, 11]: 0 | survival time of mice bearing pancreatic cancer cells ([1]; BALB/c mice, 30 days of treatment, from injection of tumor cells): all died after four months | mean weight of mice and standard deviation [1, 12]: all animals dead | mean weight of tumor nodules and standard deviation [1, 12]: all animals dead

CO[C@@]12[C@H](COC(N)=O)C3=C(C(=O)C(C)=C(N)C3=O)N1C[C@@H]1N[C@@H]12 [Group MMC, mitomycin C]
mean weight of mice and standard deviation [2]: 18.9 ± 3.4 g | mean weight of tumor nodules and standard deviation [2]: 1.37 ± 0.7 mg | Number of live animals remaining in the groups after 30 days of treatment [3, 5]: 30 | Number of live animals remaining in the groups after 30 days of treatment [3, 6]: 27 | Number of live animals remaining in the groups after 30 days of treatment [3, 7]: 21 | Number of live animals remaining in the groups after 30 days of treatment [3, 8]: 7 | Number of live animals remaining in the groups after 30 days of treatment [3, 9]: 0 | Number of live animals remaining in the groups after 30 days of treatment [3, 10]: 0 | Number of live animals remaining in the groups after 30 days of treatment [3, 11]: 0 | survival time of mice bearing pancreatic cancer cells ([3]; kun ming mice, 30 days of treatment, from injection of tumor cells): all died after four months | mean weight of mice and standard deviation [3, 12]: all animals dead | mean weight of tumor nodules and standard deviation [3, 12]: all animals dead | mean weight of mice and standard deviation [4]: 18.3 ± 1.5 g | mean weight of tumor nodules and standard deviation [4]: 2.8 ± 1.2 g
